In patent US10471059B2, “Compositions and methods of using tyrosine kinase inhibitors” (YALE UNIVERSITY, priority 2015, dated 2019):
“Also recorded” adds a separate entry of the source.

Assays:
Assay type in all cases: in vivo
[1] = test system: WT and Ptpn11^D61G/+ mice; experiment: Echocardiography, postnatal dasatinib treatment; conditions: for % EF (ejection fraction) / % FS (fractional shortening) / IVS, d (Intraventricular septum wall thickness, diastole) / IVS, s (Intraventricular septum wall thickness, systole) / LV vol, d (left ventricle volume, diastole) / LV vol, s (left ventricle volume, systole) / LVID, d (left ventricular internal dimension, diastole) / LVID, s (left ventricular internal dimension, systole) / LVPW, d (left ventricular posterior wall thickness, diastole) / LVPW, s (left ventricular posterior wall thickness, systole): n = 6, Mean ± SEM
Procedure: Dasatinib Treatment—N-(2-chloro-6-methylphenyl)-2-[[6-[4-(2-hydroxyethyl)-1-piperazinyl]-2-methyl-4-pyrimidinyl]amino]-5-thiazole carboxamide monohydrate (dasatinib, BMS-354825) was purchased from Biovision. dasatinib was dissolved in DMSO at a concentration of 10 mg/ml, then resuspended in vehicle (1× Dulbecco's PBS) at a concentration of 200 μg/ml. […] And then, injection was continued or discontinued for 2 weeks, Vehicle-injected mice served as control, Body weight was measured weekly and echocardiography was performed at P42 (6-weeks) and P56 (8-weeks).
(§1) Vehicle-injected mice served as control.

[2] = test system: WT and Ptpn11^D61G/+ mice; experiment: Invasive hemodynamic study, postnatal dasatinib treatment
Procedure: as §1
Hemodynamic Study—Anesthesia was induced by intraperitoneal injection of ketamine (100 mg/kg) and xylazine (5 mg/kg). The animal was placed on a warm pad and an incision was made on the neck. The right side carotid artery was exposed and a 1.9-French transducer-tipped catheter (Millar Inc., Houston, Tex.) was inserted into the artery, and then was advanced into left ventricle. Left ventricular pressures including high-fidelity positive, negative dp/dt and heart rate were measured under basal conditions. Data were recorded and analyzed by using LabChart software.

[3] = test system: c-Src and PZR tyrosyl phosphorylation in the heart of NS mice; experiment: Phosphorylation in heart tissue after i.p. dasatinib, immunoblot
Procedure: Male Ptpn11D61G/+ mice were injected i.p. with dasatinib at the indicated dose or DMSO control, 24h later mice were sacrificed, heart tissue harvested and immunoblotted using the indicated antibodies.
FIG. 13i is an image showing heart tissue immunoblotted with anti-Shp2, p-ERK1/2, ERK1/2, p-Src (Y416), Src, p-PZR (Y263) and PZR antibodies. […] Heart tissue was isolated after 18 hr and tissue lysates were immunoblotted.
FIG. 18a is an image showing heart tissue immunoblotted with p-Raf1 (Y341), Raf1, p-MEK1/2, MEK1/2, p-INK, INK, p-p38, p38, p-Akt (S473) and Akt antibodies. Heart tissue was isolated after 18 hr and tissue lysates were immunoblotted.
Immunoprecipitation and Immunoblotting—Cells or heart tissue were lysed on ice in lysis buffer (25 mM Tris-HCl, pH 7.4, 136 mM NaCl, 1 mM CaCl2, 1 mM MgCl2, 1% Nonidet P-40, 1 mM Na3VO4, 10 mM NaF, 1 mM benzamidine, 1 mM PMSF, 1 μg/ml pepstatin A, 5 μg/ml aprotinin, and 5 μg/ml leupeptin). Cell or tissue lysates were incubated at 4° C. for 30 min and clarified by centrifugation at 14,000 rpm at 4° C. for 10 min.

Ptpn11^Y279C/+ mice = experiment: Quantitative RT-PCR of heart RNA, NSML mice, postnatal dasatinib
Procedure: FIG. 25, comprising FIGS. 25a-25f, is a panel of graphs showing the improvement in molecular markers of cardiomyopathy and fibrosis in NSML (Y279C/+) mice following dasatinib treatment. Total heart RNA was isolated from postnatal vehicle- or dasatinib-treated (0.1 mg/kg/day) WT and Ptpn11^Y279C/+ mice (P42). Fibrosis marker genes, Col1a2 (FIG. 25a) and Col3a1 (FIG. 25b), markers of cardiomyopathy ANP (FIG. 25c) and cardiac fetal genes, Myh6 (αMHC) (FIG. 25d), Myh7 (bMHC) (FIG. 25e), and Myh6/Myh7 ratio (FIG. 25f) were measured by quantitative RT-PCR (n=6 for each group). All data represent mean±SEM. *, p<0.05; **, p<0.01; ***, p<0.001. (Two-way ANOVA test).
RNA Extraction and Quantitative Real-Time PCR Analysis—RNA was isolated from mice heart using an RNeasy kit (Qiagen, CA) according to the manufacturer's instructions. A total of 1 μg RNA was reverse transcribed to generate cDNA using a reverse transcriptase PCR kit (Applied Biosystems, CA). Real-time quantitative PCR was carried out in triplicate using the Applied Biosystems 7500 Fast real-time PCR system and SYBR green gene expression master mix with following primer pairs.
The data presented in FIGS. 25a-25f represents dasatinib treatment starting at post-natal day 10 (P10) for 6 weeks (P42) in wild type (WT) and NSML (Ptpn11^Y279C/+) mice. Ptpn11^Y279C/+ were obtained from Dr. Kontaridis (Beth Israel Deaconess Hospital, Boston, Mass.) and bred as described (Marin, et al, J Clin. Invest., 121:1026-1043(2011)). Mice were treated with either vehicle or dasatinib at a dose of 0.1 mg/kg/day for 6 weeks […]. At the completion of the study, wild type and Ptpn11^Y279C/+ mice were sacrificed and total RNA from the hearts was isolated and qPCR was performed for the detection of mRNA expression for genes involved in the development of cardiomyopathy, Myh6 and Myh7 and the development of cardiac fibrosis, col1a2 and Col3a1.

[4] = postnatal 0.1 mg/kg/day i.p. P10 to P42, then discontinued 2 weeks, Ptpn11D61G/+ mice, P56
[5] = postnatal 0.1 mg/kg/day i.p. P10 to P42, then discontinued 2 weeks, WT mice, P56
[6] = postnatal 0.1 mg/kg/day i.p. from P10, Ptpn11D61G/+ mice, P42
[7] = postnatal 0.1 mg/kg/day i.p. from P10, WT mice, P42
[8] = Ptpn11D61G/+ mice, P56, n = 9, Mean ± SEM
[9] = WT mice, P56, n = 8, Mean ± SEM
[10] = postnatal 0.1 mg/kg/day from P10 for 6 weeks, Ptpn11Y279C/+ mice

SMILES: Cc1nc(Nc2ncc(C(=O)Nc3c(C)cccc3Cl)s2)cc(N2CCN(CCO)CC2)n1.O [Dasatinib, N-(2-chloro-6-methylphenyl)-2-[[6-[4-(2-hydroxyethyl)-1-piperazinyl]-2-methyl-4-pyrimidinyl]amino]-5-thiazole carboxamide monohydrate]
- fold lower than therapeutic dose ([1]; 0.1 mg/kg versus therapeutic dose): about 200 fold
- dose sufficient to treat CHD-associated cardiac disease ([1]; mice): 0.1 mg/kg
- cardiac function after cessation of treatment ([1]; postnatal 0.1 mg/kg/day P10 to P42, discontinued 2 weeks, NS mice, P56, monohydrate): preserved improvement of cardiac function; also recorded: continued preservation of cardiac function
- cardiac function (EF and FS) ([1]; postnatal 0.1 mg/kg/day from P10, NS mice, P42, monohydrate): improves cardiac function; also recorded: complete corrective functionality; also recorded: completely restored cardiac functionality
- % EF (ejection fraction) [1, 4]: 64.71 ± 1.67 %
- % FS (fractional shortening) [1, 4]: 34.92 ± 1.23 %
- IVS, d (Intraventricular septum wall thickness, diastole) [1, 4]: 0.72 ± 0.04 mm
- IVS, s (Intraventricular septum wall thickness, systole) [1, 4]: 1.18 ± 0.05 mm
- LV vol, d (left ventricle volume, diastole) [1, 4]: 65.60 ± 2.44 mm^3
- LV vol, s (left ventricle volume, systole) [1, 4]: 24.85 ± 1.68^† mm^3
- LVID, d (left ventricular internal dimension, diastole) [1, 4]: 3.93 ± 0.08 mm
- LVID, s (left ventricular internal dimension, systole) [1, 4]: 2.60 ± 0.07 mm
- LVPW, d (left ventricular posterior wall thickness, diastole) [1, 4]: 0.65 ± 0.03 mm
- LVPW, s (left ventricular posterior wall thickness, systole) [1, 4]: 1.19 ± 0.05 mm
- % EF (ejection fraction) [1, 5]: 65.89 ± 1.74%
- % FS (fractional shortening) [1, 5]: 36.63 ± 1.20%
- IVS, d (Intraventricular septum wall thickness, diastole) [1, 5]: 0.69 ± 0.03 mm
- IVS, s (Intraventricular septum wall thickness, systole) [1, 5]: 1.19 ± 0.06 mm
- LV vol, d (left ventricle volume, diastole) [1, 5]: 64.06 ± 2.65 mm^3
- LV vol, s (left ventricle volume, systole) [1, 5]: 23.06 ± 2.21 mm^3
- LVID, d (left ventricular internal dimension, diastole) [1, 5]: 3.92 ± 0.09 mm
- LVID, s (left ventricular internal dimension, systole) [1, 5]: 2.52 ± 0.10 mm
- LVPW, d (left ventricular posterior wall thickness, diastole) [1, 5]: 0.80 ± 0.06 mm
- LVPW, s (left ventricular posterior wall thickness, systole) [1, 5]: 1.18 ± 0.05 mm
- % EF (ejection fraction) [1, 6]: 60.93 ± 2.06 %
- % FS (fractional shortening) [1, 6]: 33.08 ± 1.33 %
- IVS, d (Intraventricular septum wall thickness, diastole) [1, 6]: 0.66 ± 0.05 mm
- IVS, s (Intraventricular septum wall thickness, systole) [1, 6]: 1.04 ± 0.07 mm
- LV vol, d (left ventricle volume, diastole) [1, 6]: 57.35 ± 2.19 mm^3
- LV vol, s (left ventricle volume, systole) [1, 6]: 24.67 ± 1.18 mm^3
- LVID, d (left ventricular internal dimension, diastole) [1, 6]: 3.63 ± 0.07 mm
- LVID, s (left ventricular internal dimension, systole) [1, 6]: 2.50 ± 0.08 mm
- LVPW, d (left ventricular posterior wall thickness, diastole) [1, 6]: 0.71 ± 0.03 mm
- LVPW, s (left ventricular posterior wall thickness, systole) [1, 6]: 1.09 ± 0.06 mm
- % EF (ejection fraction) [1, 7]: 65.70 ± 0.82%
- % FS (fractional shortening) [1, 7]: 35.52 ± 0.69%
- IVS, d (Intraventricular septum wall thickness, diastole) [1, 7]: 0.71 ± 0.05 mm
- IVS, s (Intraventricular septum wall thickness, systole) [1, 7]: 1.13 ± 0.06 mm
- LV vol, d (left ventricle volume, diastole) [1, 7]: 65.87 ± 2.78 mm^3
- LV vol, s (left ventricle volume, systole) [1, 7]: 22.24 ± 0.63 mm^3
- LVID, d (left ventricular internal dimension, diastole) [1, 7]: 3.80 ± 0.11 mm
- LVID, s (left ventricular internal dimension, systole) [1, 7]: 2.45 ± 0.05 mm
- LVPW, d (left ventricular posterior wall thickness, diastole) [1, 7]: 0.81 ± 0.04 mm
- LVPW, s (left ventricular posterior wall thickness, systole) [1, 7]: 1.25 ± 0.07 mm
- aortic blood pressure and left ventricular pressure ([2]; NS mice, P56): significantly restored
- +dp/dt [2, 8]: 7718 ± 498 mmHg/s
- Diastolic pressure [2, 8]: 84.0 ± 3.5 mmHg
- End diastolic pressure [2, 8]: 11.1 ± 0.7 mmHg
- Left ventricle pressure [2, 8]: 127.9 ± 4.5 mmHg
- Mean arterial pressure [2, 8]: 96.8 ± 4.2 mmHg
- Pulse pressure [2, 8]: 63.7 ± 4.4 mmHg
- Systolic pressure [2, 8]: 129.3 ± 6.2 mmHg
- −dp/dt [2, 8]: −6189 ± 626 mmHg/s
- +dp/dt [2, 9]: 8626 ± 476 mmHg/s
- Diastolic pressure [2, 9]: 95.1 ± 4.2 mmHg
- End diastolic pressure [2, 9]: 8.7 ± 1.3 mmHg
- Left ventricle pressure [2, 9]: 136.5 ± 2.5 mmHg
- Mean arterial pressure [2, 9]: 112.1 ± 4.0 mmHg
- Pulse pressure [2, 9]: 65.2 ± 4.6 mmHg
- Systolic pressure [2, 9]: 146.2 ± 5.1 mmHg
- −dp/dt [2, 9]: −6529 ± 847 mmHg/s
- ERK1/2, Raf-1, MEK1, p38 MAPK and JNK phosphorylation in the heart ([3]; 3-week-old NS mice, dasatinib 0.1-0.5 mg/kg i.p.): neither ERK1/2 phosphorylation (FIGS. 13i-13l), Raf-1, MEK1, p38 MAPK, nor JNK were affected
- dose sufficient to significantly inhibit both c-Src and PZR tyrosyl phosphorylation in the heart ([3]; 3-week-old NS mice, i.p., heart isolated after 18 hr): 0.5 mg/kg
- fold lower dose than effective chemotherapeutic doses that can inhibit PZR tyrosyl phosphorylation in the heart ([3]; NS mice, chemotherapeutic approx. 1.4-2.0 mg/kg/day): up to 250 fold
- PZR tyrosyl phosphorylation in heart tissue ([3]; male Ptpn11D61G/+ mice, i.p., 24 h): effective at reducing
- molecular markers of cardiomyopathy and fibrosis (Ptpn11^Y279C/+ mice; 0.1 mg/kg/day, NSML (Y279C/+) mice): improvement
- expression of ANP, Myh6 and Myh7 (Ptpn11^Y279C/+ mice; [10]): complete restoration back to wild type levels
- ratio of Myh6/Myh7 (Ptpn11^Y279C/+ mice; [10]): restored to wild type levels
